{
  "source": "patent US20190290623A1",
  "about": "“USE OF TIOTROPIUM BROMIDE TO PREVENT PULMONARY OXYGEN TOXICITY” (priority 2018, published 2019)",
  "key": {"[1]": {"tested_on": "swine exposed to 2.5 ATA hyperbaric oxygen for 5.5 hr", "test": "Experiment 2 deep exposure simulation: pulmonary capacity (pressure-volume loops)", "assay_type": "in vivo", "conditions": "2.5 ATA O2 5.5 hr", "description": "Experiment 2 is designed to evaluate the efficacy of tiotropium bromide pre-dive with respect to reducing decrements in pulmonary function due to PO2T following a 5.5 hour, 2.5 ATA hyperbaric oxygen exposure. This dive profile was selected because it caused the most significant pulmonary function deficits in humans with minimal risk of seizure due to CNS oxygen toxicity.\nPulmonary function testing: The swine had disposable prewired electrodes adhered to the dermis over the gluteal muscle and a train of four (TOF) stimulation was initiated to confirm proper placement and twitch using a DigiStim III Peripheral Nerve Stimulator (Neuro Technology Inc., Kerrville, Tex.). Atracurium besylate (50 mg, IV) (hospira, Lake Forest, Ill.) was injected into the ear vein catheter, and the swine was observed until cessation of muscle twitch with TOFs. The swine was then disconnected from the ventilator circuit, allowed to passively exhale, and connected to an O2 filled 3 L super syringe (Hamilton Company, Reno, Nev.) attached to a pressure gauge (OMEGA®, Norwalk, Conn.), and pneumotachometer (Harvard Apparatus, Holliston, Mass.). Oxygen was introduced in 100 ml increments every 3 seconds until a static pressure of 40 cm H2O was reached. The lungs were then deflated in 100 ml increments until a static pressure of −40 cm H2O. The swine was then reconnected to the ventilator and ventilated for 2 minutes before repeating the insufflation and exhalation maneuvers and measurements one more time. […] After the above measurements, swine received either nebulized Tiotropium (18 μg dissolved in saline) or an equal volume of 0.9% saline through the breathing circuit over the course of 15 minutes. The propofol infusion was then stopped, the animals were then monitored until a swallow reflex was observed then extubated. The swine were then transported to the hyperbaric chamber suite and allowed to recover until capable of standing.\nHyperbaric Exposures: Individual animals were then placed into a Plexiglas box (30 in.×42 in.×38 in., manufactured in-house) within a Multiple Large Animal Chamber (MLAC), which is a steel-hulled hyperbaric chamber (450-cubic ft. floodable volume and pressure tested to 1,230 feet of seawater [fsw] equivalent) (Bethlehem Steel Corp, Bethlehem Pa.). Pressure/depth was monitored by a CPG 2500 Digital Pressure Gauge (Mensor Corp., San Marcos, Tex.). Swine were dove in pairs with each treatment group represented. Swine box assignment was alternated with respect to treatment to avoid any effects associated with individual box environmental features. Animals were monitored via closed-circuit television to observe signs of distress related to middle ear barotrauma (e.g. head shaking, nystagmus) and seizure activity. Oxygen concentration was measured and recorded using a portable O2 analyzer (Teledyne Analytical Inst, City of Industry, Calif.). After positioning the animal inside the Plexiglas box, the MLAC was sealed and pressurized using air at the rate of I ATA/minute to a depth of 2.5 ATA. After 2.5 min at a bottom depth equivalent to 2.5 ATA, the breathing gas was switched to 100% O2 and maintained for 5.5 Hrs. After completing 5.5 Hrs on 100% O2, the inspired gas was switched back to air for 3 min. Then, the chamber was decompressed at 1 ATA/minute. Upon reaching surface the animal was transported to the surgical suite for post-dive ECG and pulmonary function measurements (identical to the pre-dive procedures). The animal was then euthanized via ear vein infusion of Euthasol (1.0-1.5 ml/10 lbs body weight) followed by a saline flush (5 cc).\nPulmonary function data analysis: Pressure and flow data from the pressure gauge and pneumotachometer respectively were collected by a Dell Laptop (Round Rock, Tex.) and an analog-digital converter card (PCI-6052E, National Instruments, Austin, Tex.) with 16 bit resolution and 200 Hz sampling rate running Labchart 8.0. […]"}, "[2]": {"tested_on": "swine exposed to 1.5 ATA hyperbaric oxygen for 17.5 hr", "test": "Experiment 1 shallow exposure simulation: pulmonary compliance", "assay_type": "in vivo", "conditions": "1.5 ATA O2 17.5 hr; 18 mcg nebulized pre-dive; n=7; p=0.8364", "description": "Experiment 1 is designed to evaluate the efficacy of tiotropium bromide administered pre-dive in reducing decrements in pulmonary function due to PO2T following a 17.5 hour, 1.5 ATA hyperbaric oxygen exposure. This dive profile was selected because it was of sufficient duration to elicit persistent pulmonary function decrement in humans.\nThe swine were anesthetized with propofol (20 cc, I.V. target, adjusted as needed to optimize sedation), intubated and ventilated. Anesthetized swine were shaved, then ECG and EEG electrodes were placed. Animals were then paralyzed with Atracurium Besylate (50 mg, IV) for accurate pulmonary function measurements of quasi-static and dynamic compliance.\nFollowing baseline pulmonary function measurements, the swine were randomized to receive equivalent volumes of normal saline or tiotropium bromide (18 mcg) via nebulizer. The swine were then ventilated until muscle tone was regained. […]\nNext, the swine were switched to 100% oxygen breathing gas and remained at 1.5 ATA for 17.5 hr. […] When fully sedated, the swine were ventilated, paralyzed with Atracurium Besylate, and post-dive measurements of pulmonary function were recorded. During all phases of study the swine were continuously monitored for signs of seizure or distress. […]"}},
  "data": [
    {"smiles": "C[N+]1(C)[C@@H]2C[C@@H](OC(=O)C(O)(c3cccs3)c3cccs3)C[C@H]1[C@@H]1O[C@@H]12", "note": "[Tiotropium, tiotropium bromide]", "values": [
      {"measurement": "change in VC following hyperbaric exposure", "setting": "[1]; 1st set of measurements", "result": "no change"},
      {"measurement": "decrease in IC following hyperbaric exposure", "setting": "[1]; 1st set of measurements, n=7, p=0.2217, mean ± SEM", "result": "57.14 ± 34.11", "unit": "mL"},
      {"measurement": "increase in ERV following hyperbaric exposure", "setting": "[1]; 1st set of measurements, n=7, p=0.6315, mean ± SEM", "result": "57.14+62.65 ml"},
      {"measurement": "increase in VC following hyperbaric exposure", "setting": "[1]; 2nd set of measurements, n=9, mean ± SEM", "result": "22.22+52.69 ml"},
      {"measurement": "increase in ERV following hyperbaric exposure", "setting": "[1]; 2nd set of measurements, n=9, p=0.4806, mean ± SEM", "result": "44.44 ± 39.49", "unit": "mL"},
      {"measurement": "decrease in IC following hyperbaric exposure", "setting": "[1]; 2nd set of measurements, n=9, p=0.5300, mean ± SEM", "result": "33.33 ± 31.94", "unit": "mL"},
      {"measurement": "Inspiratory capacity, Saline vs Tiotropium groups", "setting": "[1]; percent change from baseline, averaged, p=0.266", "result": "no significant differences"},
      {"measurement": "Vital Capacity, Saline vs Tiotropium groups", "setting": "[1]; percent change from baseline, averaged, p=0.325", "result": "no significant differences"},
      {"measurement": "Expiratory Reserve Volume, Saline vs Tiotropium groups", "setting": "[1]; percent change from baseline, averaged, p=0.900", "result": "no significant differences"},
      {"measurement": "pulmonary compliance, baseline vs post-dive", "setting": "[2]", "result": "no significant changes"}
    ]}
  ]
}
